Measurements from publication PMC3083694, “Effects of Intermediates between Vitamins K2 and K3 on Mammalian DNA Polymerase Inhibition and Anti-Inflammatory Activity” (International Journal of Molecular Sciences, 2011).

How the values were obtained:
[1] = test system: TPA-induced edema on mouse ear; test: TPA-induced mouse ear inflammatory test; type: in vivo; details: 250 or 500 μg applied to ear 30 min before TPA (0.5 μg); edema evaluated after 7 h; Figure 3
Procedure: All animal studies were performed according to the guidelines outlined in the “Care and Use of Laboratory Animals” of Kobe University. The animals were anesthetized with pentobarbital before undergoing cervical dislocation. Female 8-week-old C57BL/6 mice that had been bred in-house with free access to food and water were used for all experiments. All of the mice were maintained under a 12-h light/dark cycle and housed at a room temperature of 25 °C.
The mouse inflammatory test was performed according to Gschwendt’s method. In brief, an acetone solution of the VK2 and VK3 intermediates (250 or 500 μg in 20 μL) or 20 μL of acetone as a vehicle control was applied to the inner part of the mouse ear. Thirty minutes after the test compound was applied, a TPA solution (0.5 μg/20 μL of acetone) was applied to the same part of the ear. To the other ear of the same mouse, methanol, followed by TPA solution, was applied as a control. After 7 h, a disk (6 mm diameter) was obtained from the ear and weighed. The inhibitory effect (IE) is presented as a ratio of the increase in weight of the ear disks: IE=[(TPA only)−(tested compound plus TPA)]/[(TPA only)−(vehicle)]×100

[2] = target: T1, Human DNA polymerase λ (Homo sapiens, UniProt Q9UGP5); test: DNA polymerase activity assay, human pol λ; type: biochemical; details: for Inhibitory effect on human pol λ activity: 50 μM of each compound, Figure 2
T1 construct: made in house
T1 sequence (Q9UGP5 1-575): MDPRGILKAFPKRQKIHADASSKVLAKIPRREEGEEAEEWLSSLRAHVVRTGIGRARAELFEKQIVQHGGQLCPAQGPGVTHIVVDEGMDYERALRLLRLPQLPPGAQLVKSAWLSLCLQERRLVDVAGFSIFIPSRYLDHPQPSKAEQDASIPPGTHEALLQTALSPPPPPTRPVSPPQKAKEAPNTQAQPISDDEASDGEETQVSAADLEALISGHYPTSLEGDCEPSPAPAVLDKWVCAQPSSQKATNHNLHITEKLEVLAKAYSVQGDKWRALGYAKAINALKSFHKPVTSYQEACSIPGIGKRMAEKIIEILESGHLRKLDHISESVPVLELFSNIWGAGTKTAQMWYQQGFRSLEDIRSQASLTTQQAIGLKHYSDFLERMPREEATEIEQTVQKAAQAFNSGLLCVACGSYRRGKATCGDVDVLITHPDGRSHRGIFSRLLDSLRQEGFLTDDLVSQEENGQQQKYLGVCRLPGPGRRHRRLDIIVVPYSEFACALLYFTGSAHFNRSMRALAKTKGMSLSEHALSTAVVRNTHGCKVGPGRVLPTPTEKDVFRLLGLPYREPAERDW
Procedure: (§1) Pols from mammals, a fish (cherry salmon), an insect (fruit fly) and a plant (cauliflower) were purified, and prokaryotic pols and other DNA metabolic enzymes, such as T7 RNA polymerase, T4 polynucleotide kinase and bovine deoxyribonuclease I, were purchased as described in our previous report. The activities of all pols and other DNA metabolic enzymes were measured as described in previous reports.
(§2) The components of the pol assay were poly(dA)/oligo(dT)18 and dTTP as the DNA template-primer and 2′-deoxyribonucleoside 5′-triphosphate (dNTP) substrate, respectively. VK2, VK3, and their synthesized derivatives (i.e., MK-3, MK-2 and MK-1) were dissolved in dimethyl sulfoxide (DMSO) at various concentrations and sonicated for 30 s. The sonicated samples (4 μL) were mixed with 16 μL of each pol enzyme (final amount, 0.05 units) in 50 mM Tris-HCl (pH 7.5) containing 1 mM dithiothreitol, 50% glycerol and 0.1 mM EDTA, and kept at 0 °C for 10 min. These inhibitor–enzyme mixtures (8 μL) were added to 16 μL of each standard enzyme reaction mixture (50 mM Tris-HCl [pH 7.5], 1 mM dithiothreitol, 1 mM MgCl2, 15% glycerol, 10 μM poly(dA)/oligo(dT)18 and 10 μM [^3H]-dTTP), and incubation was carried out at 37 °C for 60 min, except for Taq pol, which was incubated at 74 °C for 60 min. Activity without the inhibitor was considered to be 100%, and the activity remaining at each concentration of inhibitor was determined relative to this value. One unit of pol activity was defined as the amount of enzyme that catalyzed the incorporation of 1 nmol dNTP (dTTP) into the synthetic DNA template-primer (poly(dA)/oligo(dT)18, A/T = 2/1) in 60 min at 37 °C under normal reaction conditions for each enzyme (scintillation counts: approximately 1 pmol of incorporated radioactive nucleotides = 100 cpm).

[3] = target: T2, Human DNA polymerase κ (Homo sapiens, UniProt Q9UBT6); test: DNA polymerase activity assay, human pol κ; type: biochemical; details: for Inhibitory effect on human pol κ activity: 50 μM of each compound, Figure 2
T2 construct: made in house
T2 sequence (Q9UBT6 1-560 limits assumed): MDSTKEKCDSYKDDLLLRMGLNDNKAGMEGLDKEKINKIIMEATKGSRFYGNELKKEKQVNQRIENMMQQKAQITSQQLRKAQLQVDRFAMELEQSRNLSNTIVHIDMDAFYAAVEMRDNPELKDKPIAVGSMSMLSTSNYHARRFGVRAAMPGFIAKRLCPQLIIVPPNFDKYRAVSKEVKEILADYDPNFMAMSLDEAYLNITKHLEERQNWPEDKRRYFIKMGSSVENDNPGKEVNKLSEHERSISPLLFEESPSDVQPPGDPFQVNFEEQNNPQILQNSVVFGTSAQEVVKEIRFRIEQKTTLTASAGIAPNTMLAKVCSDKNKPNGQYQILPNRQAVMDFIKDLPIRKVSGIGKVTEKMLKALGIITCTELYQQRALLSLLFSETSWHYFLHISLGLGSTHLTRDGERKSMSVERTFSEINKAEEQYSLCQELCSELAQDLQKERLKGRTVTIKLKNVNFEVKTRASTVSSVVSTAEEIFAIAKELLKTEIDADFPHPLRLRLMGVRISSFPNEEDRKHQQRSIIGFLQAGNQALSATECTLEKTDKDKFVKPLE
Procedure: as §1, §2

Inhibitory effect on human pol λ activity [2]	Inhibitory effect on human pol κ activity [3]	Structure (SMILES)	Anti-inflammatory activity toward TPA-induced edema on mouse ear [1]	IC50 ([2]; X-family pol, read-out: IC50 Value of MK-2, Human DNA polymerase λ)	IC50 ([3]; Y-family pol, read-out: IC50 Value of MK-2, Human DNA polymerase κ)
inhibited the activity	inhibited the activity	CC(C)=CCC/C(C)=C/CC/C(C)=C/CC1=C(C)C(=O)c2ccccc2C1=O [MK-3]	weak effect		
inhibited the activity	inhibited the activity	CC(C)=CCC1=C(C)C(=O)c2ccccc2C1=O [MK-1]	suppressed inflammation		
had no effect on pol activity	had no effect on pol activity	CC(C)=CCC/C(C)=C/CC/C(C)=C/CC/C(C)=C/CC1=C(C)C(=O)c2ccccc2C1=O [MK-4, menaquinone 4, reference compound]	weak effect		

Structure (SMILES)	Inhibitory effect on human pol λ activity [2]	Inhibitory effect on human pol κ activity [3]	Anti-inflammatory activity toward TPA-induced edema on mouse ear [1]	IC50 ([2]; X-family pol, read-out: IC50 Value of MK-2, Human DNA polymerase λ)	IC50 ([3]; Y-family pol, read-out: IC50 Value of MK-2, Human DNA polymerase κ)
CC(C)=CCC/C(C)=C/CC1=C(C)C(=O)c2ccccc2C1=O [MK-2]	inhibited the activity	inhibited the activity	suppressed inflammation	24.6 ± 1.4 µM	35.3 ± 2.1 µM
